{"source": "patent US20260130885A1", "about": "“ANTIMICROBIAL COMPOSITIONS, PHARMACEUTICAL COMPOSITIONS AND USE THEREOF” (priority 2022, published 2026)", "test_system": "MRSA USA300", "test": "Antibacterial activity assay (MIC by broth microdilution, MBC by subculture)", "type": "cell-based, Staphylococcus aureus", "details": "for synergy of the fatty acid with SC5005 (in words): summary of Tables 1 and 2; for bactericidal combination effect of the fatty acid with SC5005 (in words): MBC, Table 2; for effect of the fatty acid on the MIC of SC5005 (in words): summary of Table 1", "description": "The antimicrobial activity was based on MIC and MBC; MIC is the minimum inhibitory concentration and MBC is the minimum bactericidal concentration. The MIC of individual test agents against MRSA USA300 strains was determined using the broth microdilution method according to CLSI guidelines. Briefly, overnight bacterial cultures in LB medium were diluted 1:50 in fresh LB medium and incubated at 37° C. until reaching an OD600 of 0.5 to 0.6. Bacterial suspensions were diluted to a final concentration of 5×10^5 cfu/mL in fresh CAMHB and then exposed to each test agent at increasing doses in triplicate in 96-well plates for 24 hours at 37° C. The MIC of each agent was defined as the lowest concentration without visible bacterial growth. […] The lowest broth dilution that had no viable bacteria was considered the MBC.\nThen, the combination effect was measured by calculating their corresponding fractional inhibitory concentration index (FICI) with the equation ΣFIC (FICi)=FICA+FICB=(CombA/MICA)+(CombB/MICB), where MICA and MICB are the MICs of drugs A and B alone, respectively, and CombA and CombB are the concentrations of drugs A and B in combination, respectively. […] was defined as an FICI≤0.5, no interaction was defined as an FICI>0.5-4.0, and antagonism was defined as an FICI>4.", "key": {"[1]": {"details": "Staphylococcus aureus, amide compound alone, read-out: MBC"}, "[2]": {"details": "Staphylococcus aureus, amide compound alone, read-out: MIC"}, "[3]": {"details": "Staphylococcus aureus, fatty acid alone, read-out: MBC fatty acid"}, "[4]": {"details": "Staphylococcus aureus, fatty acid alone, read-out: MIC fatty acid"}}, "note": "Read-outs that look alike come from different tables or passages of the source.", "data": [{"smiles": "O=C(CC(=O)Nc1ccc(Cl)c(C(F)(F)F)c1)Nc1ccc(Cl)c(C(F)(F)F)c1", "note": "[SC5106]", "values": [{"measurement": "MBC", "setting": "+8 mg/L DHA", "value": 0.5, "unit": "mg/L"}, {"measurement": "MIC", "setting": "+8 mg/L DHA", "value": 0.25, "unit": "mg/L"}, {"measurement": "MBC", "setting": "[1]", "value": "> 64", "unit": "mg/L"}, {"measurement": "MIC", "setting": "[2]", "value": "> 64", "unit": "mg/L"}]}, {"smiles": "O=C(Nc1ccc(Cl)c(C(F)(F)F)c1)C1(C(=O)Nc2ccc(Cl)c(C(F)(F)F)c2)CC1", "note": "[SC5107]", "values": [{"measurement": "MBC", "setting": "+8 mg/L DHA", "value": 0.125, "unit": "mg/L"}, {"measurement": "MIC", "setting": "+8 mg/L DHA", "value": 0.0625, "unit": "mg/L"}, {"measurement": "MBC", "setting": "amide compound alone", "value": ">64", "unit": "mg/L"}, {"measurement": "MIC", "setting": "amide compound alone", "value": ">64", "unit": "mg/L"}]}, {"smiles": "O=C(Nc1ccc(Cl)c(C(F)(F)F)c1)Nc1ccc(Cl)c(C(F)(F)F)c1", "note": "[SC5178]", "values": [{"measurement": "MBC", "setting": "+8 mg/L DHA", "value": 0.00156, "unit": "mg/L"}, {"measurement": "MIC", "setting": "+8 mg/L DHA", "value": 0.00012, "unit": "mg/L"}, {"measurement": "MBC", "setting": "[1]", "value": 2, "unit": "mg/L"}, {"measurement": "MIC", "setting": "[2]", "value": 0.25, "unit": "mg/L"}]}, {"smiles": "CCCCC/C=C\\C/C=C\\C/C=C\\C/C=C\\CCCC(=O)O", "note": "[arachidonic acid]", "values": [{"measurement": "MBC", "setting": "[3]", "value": 1020, "unit": "mg/L"}, {"measurement": "MIC", "setting": "[4]", "value": 128, "unit": "mg/L"}]}, {"smiles": "CCCCCCCC/C=C/CCCCCCCC(=O)O", "note": "[elaidic acid]", "values": [{"measurement": "MBC", "setting": "[3]", "value": "> 1020", "unit": "mg/L"}, {"measurement": "MIC", "setting": "[4]", "value": "> 1020", "unit": "mg/L"}, {"measurement": "synergy of the fatty acid with SC5005 (in words)", "value": "did not exhibit synergy with SC5005"}]}, {"smiles": "CCCCCCCC/C=C\\CCCCCCCCCCCC(=O)O", "note": "[erucic acid]", "values": [{"measurement": "bactericidal combination effect of the fatty acid with SC5005 (in words)", "value": "exhibited a synergistic bactericidal effect with SC5005"}, {"measurement": "MBC", "setting": "[3]", "value": 1020, "unit": "mg/L"}, {"measurement": "MIC", "setting": "[4]", "value": 128, "unit": "mg/L"}, {"measurement": "effect of the fatty acid on the MIC of SC5005 (in words)", "value": "had no effect on the MIC of SC5005"}]}, {"smiles": "CCCCCCCC/C=C\\CCCCCCCCCC(=O)O", "note": "[gondoic acid]", "values": [{"measurement": "bactericidal combination effect of the fatty acid with SC5005 (in words)", "value": "exhibited a synergistic bactericidal effect with SC5005"}, {"measurement": "MBC", "setting": "[3]", "value": "> 1020", "unit": "mg/L"}, {"measurement": "MIC", "setting": "[4]", "value": 512, "unit": "mg/L"}, {"measurement": "effect of the fatty acid on the MIC of SC5005 (in words)", "value": "had no effect on the MIC of SC5005"}]}, {"smiles": "CCCCC/C=C\\C/C=C\\CCCCCCCC(=O)O", "note": "[linoleic acid]", "values": [{"measurement": "MBC", "setting": "[3]", "value": "> 1020", "unit": "mg/L"}, {"measurement": "MIC", "setting": "[4]", "value": 1020, "unit": "mg/L"}]}, {"smiles": "CCCCCCCCCCCCCC(=O)O", "note": "[myristic acid]", "values": [{"measurement": "MBC", "setting": "[3]", "value": "> 1020", "unit": "mg/L"}, {"measurement": "MIC", "setting": "[4]", "value": 512, "unit": "mg/L"}, {"measurement": "synergy of the fatty acid with SC5005 (in words)", "value": "neither of nervonic acid (C24:1n9c) and myristic acid (C14:1n5c), which have 24 and 14 carbon atoms respectively, showed any synergistic activity with SC5005"}]}, {"smiles": "CCCCCCCC/C=C\\CCCCCCCCCCCCCC(=O)O", "note": "[nervonic acid]", "values": [{"measurement": "MBC", "setting": "[3]", "value": "> 1020", "unit": "mg/L"}, {"measurement": "MIC", "setting": "[4]", "value": 128, "unit": "mg/L"}, {"measurement": "synergy of the fatty acid with SC5005 (in words)", "value": "neither of nervonic acid (C24:1n9c) and myristic acid (C14:1n5c), which have 24 and 14 carbon atoms respectively, showed any synergistic activity with SC5005"}]}, {"smiles": "CCCCCCCC/C=C\\CCCCCCCC(=O)O", "note": "[oleic acid]", "values": [{"measurement": "MBC", "setting": "[3]", "value": "> 1020", "unit": "mg/L"}, {"measurement": "MIC", "setting": "[4]", "value": 512, "unit": "mg/L"}]}, {"smiles": "CCCCCC/C=C\\CCCCCCCC(=O)O", "note": "[palmitoleic acid]", "values": [{"measurement": "MBC", "setting": "[3]", "value": 512, "unit": "mg/L"}, {"measurement": "MIC", "setting": "[4]", "value": 64, "unit": "mg/L"}, {"measurement": "synergy of the fatty acid with SC5005 (in words)", "value": "exhibited synergy"}]}, {"smiles": "CCCCCCCCCCCCCCCCCC(=O)O", "note": "[stearic acid]", "values": [{"measurement": "MBC", "setting": "[3]", "value": "> 1020", "unit": "mg/L"}, {"measurement": "MIC", "setting": "[4]", "value": 512, "unit": "mg/L"}, {"measurement": "synergy of the fatty acid with SC5005 (in words)", "value": "failed to exhibit synergy"}]}, {"smiles": "CC/C=C\\C/C=C\\C/C=C\\CCCCCCCC(=O)O", "note": "[α- linolenic acid, α-linolenic acid]", "values": [{"measurement": "MBC", "setting": "[3]", "value": 1020, "unit": "mg/L"}, {"measurement": "MIC", "setting": "[4]", "value": 256, "unit": "mg/L"}]}]}
